Each structure is given as a SMILES string. Read-outs that look alike come from different tables or passages of the source. A value given as a limit tells only on which side of the number the result lay.

Assay [1] deals with T1, human MR (Homo sapiens, UniProt P08235).
T1 construct: The full length human MR gene is cloned from a human kidney or human brain cDNA library; His tag from the pAcHLT vector (own knowledge); made in house; host or cells: Sf9 insect cells (baculovirus, pAcHLT transfer vector)
T1 sequence (P08235 1-984): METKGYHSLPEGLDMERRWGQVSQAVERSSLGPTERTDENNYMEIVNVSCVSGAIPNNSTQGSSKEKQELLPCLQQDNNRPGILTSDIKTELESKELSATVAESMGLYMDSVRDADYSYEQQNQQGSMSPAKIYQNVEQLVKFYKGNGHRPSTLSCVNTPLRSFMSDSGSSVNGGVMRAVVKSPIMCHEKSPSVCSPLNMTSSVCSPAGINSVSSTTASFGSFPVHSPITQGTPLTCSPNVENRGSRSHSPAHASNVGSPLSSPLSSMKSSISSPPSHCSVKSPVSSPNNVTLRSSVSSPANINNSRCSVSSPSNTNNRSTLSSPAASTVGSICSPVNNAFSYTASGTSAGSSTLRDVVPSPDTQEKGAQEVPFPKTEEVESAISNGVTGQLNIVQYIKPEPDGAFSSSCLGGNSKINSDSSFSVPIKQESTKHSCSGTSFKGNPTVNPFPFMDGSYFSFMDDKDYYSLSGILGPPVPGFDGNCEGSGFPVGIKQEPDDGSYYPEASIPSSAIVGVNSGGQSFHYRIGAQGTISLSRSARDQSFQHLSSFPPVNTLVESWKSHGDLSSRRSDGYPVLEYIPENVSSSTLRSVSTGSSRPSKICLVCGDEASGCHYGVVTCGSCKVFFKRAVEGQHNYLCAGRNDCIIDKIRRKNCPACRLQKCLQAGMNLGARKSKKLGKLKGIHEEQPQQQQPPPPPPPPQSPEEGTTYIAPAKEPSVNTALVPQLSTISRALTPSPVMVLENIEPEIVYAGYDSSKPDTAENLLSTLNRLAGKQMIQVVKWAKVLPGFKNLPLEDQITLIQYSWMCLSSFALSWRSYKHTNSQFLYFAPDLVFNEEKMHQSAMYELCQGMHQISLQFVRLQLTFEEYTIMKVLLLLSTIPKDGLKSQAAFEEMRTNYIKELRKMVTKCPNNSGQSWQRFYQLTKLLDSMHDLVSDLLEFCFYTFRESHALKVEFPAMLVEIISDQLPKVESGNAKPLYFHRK
The experiment in a line: Mineralocorticoid Receptor Binding Assay ([3H]-aldosterone). In short, it runs like this: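 Receptor source: freeze-thaw lysate of baculovirus-infected Sf9 cells carrying full-length human MR, 20-25 μg protein. Incubation ~16 h at 4 °C with shaking, pH 7.5 buffer containing 30 mM sodium molybdate and 10% glycerol.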

The target of assay [2] is T2, glucocorticoid receptor (Homo sapiens, UniProt P04150).
T2 construct: containing 50-200 ug of A549 cell extract and 1.86 nM [^3H]-dexamethasone; host or cells: A549 human lung epithelial cells (sonicated cell extract)
T2 sequence (P04150 1-777): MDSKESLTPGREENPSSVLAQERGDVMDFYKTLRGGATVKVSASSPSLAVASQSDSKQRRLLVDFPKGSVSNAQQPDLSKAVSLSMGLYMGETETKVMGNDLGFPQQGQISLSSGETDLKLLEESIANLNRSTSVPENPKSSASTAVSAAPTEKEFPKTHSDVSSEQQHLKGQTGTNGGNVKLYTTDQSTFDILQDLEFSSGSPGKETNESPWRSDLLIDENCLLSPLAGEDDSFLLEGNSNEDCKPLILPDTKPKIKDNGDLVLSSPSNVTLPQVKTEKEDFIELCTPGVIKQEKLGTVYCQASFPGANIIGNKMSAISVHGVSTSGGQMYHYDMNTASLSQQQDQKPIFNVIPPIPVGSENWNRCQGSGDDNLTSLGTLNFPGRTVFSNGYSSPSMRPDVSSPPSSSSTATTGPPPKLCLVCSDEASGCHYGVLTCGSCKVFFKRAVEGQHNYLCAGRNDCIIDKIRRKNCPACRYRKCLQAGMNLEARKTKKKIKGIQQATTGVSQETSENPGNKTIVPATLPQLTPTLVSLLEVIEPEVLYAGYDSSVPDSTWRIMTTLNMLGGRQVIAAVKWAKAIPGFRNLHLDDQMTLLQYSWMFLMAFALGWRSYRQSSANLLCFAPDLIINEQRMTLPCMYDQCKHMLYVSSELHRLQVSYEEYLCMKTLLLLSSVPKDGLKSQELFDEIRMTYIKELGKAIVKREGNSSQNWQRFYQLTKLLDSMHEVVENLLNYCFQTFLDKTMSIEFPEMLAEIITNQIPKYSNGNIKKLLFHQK
The assay can be described thus: Glucocorticoid Receptor Binding Assay ([3H]-dexamethasone, A549 cell extract). The settings on record: [3H]-dexamethasone binding, read-out: GR Ki. The gist of the method:
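Displacement of [3H]-dexamethasone (1.86 nM) from glucocorticoid receptor in sonicated A549 lung epithelial cell extracts, 16 h at 4 °C, pH 7.2 molybdate-containing buffer. Bound radioactivity was scintillation-counted after charcoal/dextran stripping of free ligand.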

Setting [3] is: [3H]-aldosterone binding, human MR expressed in Sf9 cells, read-out: MR Ki.

With `CS(=O)(=O)Nc1cccc(/C=C2\c3ccccc3CCc3sc(Cl)cc32)c1` [Example 481, N-[3-(2-Chloro-9,10-dihydro-1-thia-benzo[f]azulen-4-ylidenemethyl)-phenyl]-methanesulfonamide], the Ki in assay [1] (setting [3]) and in assay [2] was less than 500 nM each time.
As to `O/N=C/c1ccc(C=C2c3ccccc3CCc3ccccc32)cc1` [Example 79, 4-(10,11-Dihydro-dibenzo[a,d]cyclohepten-5-ylidenemethyl)-benzaldehyde oxime], the Ki in assay [1] (setting [3]) and in assay [2] was less than 500 nM throughout.
As for `CS(=O)(=O)Nc1cccc(C=C2c3ccccc3CCc3c2cccc3-c2ccccc2)c1` [Example 411], the Ki in assay [1] (setting [3]) and in assay [2] was less than 500 nM throughout.
As to `Fc1ccc2c(c1)CCc1ncccc1/C2=C/c1ccccc1C(F)F` [Example 539], the Ki in assay [1] (setting [3]) and in assay [2] was less than 500 nM in each case.
On to `O=c1[nH]c2ccc(C=C3c4cc(F)ccc4COc4ccccc43)cc2[nH]1` [Example 714], for which the results for the Ki in assay [1] (setting [3]) and in assay [2] were less than 500 nM and less than 10000 nM, respectively.
The like results for `CC/C(=C1\c2ccc(OC)cc2COc2ccccc21)c1cccc(NS(C)(=O)=O)c1` [Example 822] were, in that order, less than 500 nM and less than 500 nM.
The matching figures for `CS(=O)(=O)Nc1cccc(C=C2c3ccccc3CCc3ncccc32)c1` [Example 505]: less than 500 nM and less than 1000 nM.
Take `Oc1cncc(C=C2c3ccccc3CCc3ccccc32)c1` [Example 236, 5-(10,11-Dihydro-dibenzo[a,d]cyclohepten-5-ylidenemethyl)pyridin-3-ol]: the Ki in assay [1] (setting [3]) and in assay [2] was less than 500 nM throughout.
Regarding `Fc1ccc(/C=C2\c3ccc(F)cc3CCc3ncccc32)cc1` [Example 580], the figures for the Ki in assay [1] (setting [3]) and in assay [2] were less than 500 nM and less than 10000 nM, respectively.
As to `Cc1ccc2c(c1)SCc1ccccc1/C2=C/c1cccc(NS(C)(=O)=O)c1` [Example 748], the Ki in assay [1] (setting [3]) and in assay [2] was less than 500 nM each time.
For `CC/C(=C1/c2ccccc2COc2cc(F)ccc21)c1cccc(NS(C)(=O)=O)c1` [Example 812], the Ki in assay [1] (setting [3]) and in assay [2] was less than 500 nM throughout.
On to `COC(=O)c1cccc(/C=C2\c3ccc(F)cc3CCc3ncccc32)c1` [Example 585], for which the Ki in assay [1] (setting [3]) was less than 500 nM; in assay [2], less than 10000 nM.
On to `COc1ccc2c(c1)COc1cc(F)ccc1/C2=C(/C)c1cccc(NS(C)(=O)=O)c1` [Example 819], for which the Ki in assay [1] and in assay [2] was less than 500 nM throughout.
`CN1C(=O)c2ccccc2C(=Cc2cccc(NS(C)(=O)=O)c2)c2ccccc21` [Example 652]: the figures for the Ki in assay [1] (setting [3]) and in assay [2] were less than 500 nM and less than 10000 nM, respectively.
The matching figures for `CS(=O)(=O)Nc1cccc(C=C2c3ccccc3CCc3ccccc32)c1` [Example 90, N-[3-(10,11-Dihydro-dibenzo[a,d]cyclohepten-5-ylidenemethyl)-phenyl]-methanesulfonamide]: less than 500 nM and less than 500 nM.
The like results for `COc1ccc2c(c1)CCc1ccccc1C2=Cc1ccc(N)cc1` (mixture of isomers) [Example 166, 4-(2-Methoxy-10,11-dihydro-dibenzo[a,d]cyclohepten-5-ylidenemethyl)-phenylamine] were, in that order, less than 500 nM and less than 10000 nM.
The like results for `CS(=O)(=O)Nc1cccc(C[C@H]2c3ccccc3CCc3ncccc32)c1` [Example 517] were, in that order, less than 500 nM and less than 1000 nM.
Turning to `O=c1[nH]c2cc(/C=C3\c4ccccc4COc4cc(F)ccc43)ccc2o1` [Example 633], the Ki in assay [1] (setting [3]) and in assay [2] was less than 500 nM throughout.
Regarding `C/C(=C1/c2ccc(Cl)cc2COc2ccccc21)c1cccc(NS(C)(=O)=O)c1` [Example 797], the Ki in assay [1] (setting [3]) and in assay [2] was less than 500 nM throughout.
As for `O/N=C/c1ccccc1C=C1c2ccccc2CCc2ccccc21` [Example 77, 2-(10,11-Dihydro-dibenzo[a,d]cyclohepten-5-ylidenemethyl)-benzaldehyde oxime], the Ki in assay [1] (setting [3]) and in assay [2] was less than 500 nM in each case.

The record behind these values is patent publication US20060063759A1, “Tricyclic steroid hormone nuclear receptor modulators” (priority 2002, published 2006).
